Measured values as given in article PMC11984392, “EphA2-targeted alpha-particle theranostics for enhancing PDAC treatment” (Theranostics, 2025).
*1 amine or outer side, *2 acyl side, *3 side chain or, on linkers, in order; H or OH if unused. Where a SMILES comes first, the peptide text is derived from it. Bridges are numbered along the chain shown (N, C = ends). [ ]: non-standard residue; d: D form. The star is where a group is joined. TATA = O=C(CC[*:1])N1CN(C(=O)CC[*:2])CN(C(=O)CC[*:3])C1; NOTA = O=C(O)CN1CCN(CC(=O)O)CCN(CC(=O)*)CC1; Hyp = O=C(O)[C@@H]1C[C@@H](O)CN1; hArg = N=C(N)NCCCC[C@H](N)C(=O)O; PEG2 = NCCOCCOCCC(=O)O; Sar = CNCC(=O)O

Assay: In vitro stability of radiotracers in human serum
Format: in vitro ADME
Details: radio-RP-HPLC after ultrafiltration (10 kDa)
Description: The stability of the radiotracers was assessed in saline and human serum at 37 °C to mimic physiological conditions. Approximately 1.5 mCi of the radiotracer, prepared in 100-150 µL of saline, was added to 0.5 mL of either saline or human serum in separate microcentrifuge tubes. The mixtures were gently vortexed and then incubated at 37 °C in an incubator. At predetermined time-points (1, 2, and 3 h), 100 µL aliquots were collected from the incubation mixtures for analysis. For serum samples, proteins were removed by adding 100 µL of saline and 50 µL of ethanol, followed by ultrafiltration using 10 kDa centrifugal filters made of regenerative cellulose membranes. The filtration process was performed by centrifugation at 14,000 rpm for 10 min and repeated once more to ensure complete protein removal. The filtrate was collected for analysis. The radiochemical integrity of the radiotracer in both saline and serum was evaluated using radio-RP-HPLC.

Question: Which “Stability in human serum (radio-HPLC finding)” value (37 °C, 1, 2 and 3 h, ~1.5 mCi in 0.5 mL) does the source give for `CC(C)C[C@@H]1NC(=O)[C@@H]2CSCCC(=O)N3CN(CN(C3)C(=O)CCSC[C@H](NC(=O)[C@H](CC(=O)O)NC(=O)[C@H](CCCCNC(=N)N)NC(=O)[C@H](C)NC(=O)CNC(=O)CN(C)C(=O)CN(C)C(=O)CN(C)C(=O)[C@H](CCCNC(=N)N)NC(=O)CNC(=O)CCOCCOCCNC(=O)CN3CCN(CC(=O)O)CCN(CC(=O)O)CC3)C(=O)N3C[C@H](O)C[C@H]3C(=O)N[C@@H](CC(C)C)C(=O)N[C@@H](C(C)C)C(=O)N[C@@H](CC(N)=O)C(=O)N3CCC[C@H]3C(=O)N[C@@H](CC(C)C)C(=O)N2)C(=O)CCSC[C@@H](C(N)=O)NC(=O)[C@H](CCCCNC(=N)N)NC(=O)[C@H](Cc2c[nH]c3ccccc23)NC(=O)[C@@H](CC(=O)O)NC(=O)[C@@H]2CCCN2C(=O)[C@H](Cc2c[nH]cn2)NC1=O` [[^68Ga]AJ201, metal not drawn] ({NOTA-PEG2}-GR[Sar][Sar][Sar]GA[hArg]DC[Hyp]LVNPLCLHP[dD]W[hArg]C-NH2; linker 10-17-24 via TATA) here?
Answer: stable without noticeable degradation or impurity formation

Question: And the “Time of stability in human serum” value (37 °C)?
Answer: at least 3 h
